Laboratory results as given in ChEMBL document CHEMBL1128656, “5,6,7,8-Tetrahydroquinolones as antagonists at the glycine site of the NMDA receptor” (Bioorg Med Chem Lett, 1995).
One block for each molecule: values may come before it. Active and inactive are the calls of the source. The rule behind the calls is not given here.

Legend:
[1] = molecular target: Glutamate receptor ionotropic, NMDA 1 (Rattus norvegicus, UniProt P35439); test: Compound was evaluated for its ability to displace [3H]-L-689,560 from rat cortical membrane
Mus musculus [2] = test: Effective dose required to protect against audiogenic seizure in DBA/2 mice at 10 mg/kg; number protected / number tested is 4/8; type: functional, organism-based; design: dose 10 mg/kg
Mus musculus [3] = species: Mus musculus; test: Effective dose required to protect against audiogenic seizure in DBA/2 mice; type: functional
Mus musculus [4] = test: Effective dose required to protect against audiogenic seizure in DBA/2 mice at 10 mg/kg; number protected / number tested is 1/8; type: functional, organism-based; design: dose 10 mg/kg
[5] = molecular target: Glutamate receptor ionotropic, NMDA 1 (Rattus norvegicus) (UniProt P35439); test: Ability of compound to antagonize NMDA induced responses in rat cortical slice; type: functional
Mus musculus [6] = test: Effective dose required to protect against audiogenic seizure in DBA/2 mice at 20 mg/kg; number protected / number tested is 8/8; type: functional, organism-based; design: dose 20 mg/kg

SMILES: Cc1[nH]c(=O)c(-c2ccccc2)c(O)c1C
- IC50 [1]: > 100 µM

- IC50 [1]: ~100 µM
SMILES: CCCc1nc(O)c(-c2ccccc2)c(O)c1C

- IC50 [1]: 0.02 µM
SMILES: Cc1ccc2c(O)c(-c3cccc(Oc4ccccc4)c3)c(=O)[nH]c2c1

SMILES: Cc1ccc2c(O)c(-c3cccc(Oc4ccccc4)c3)c(O)nc2c1
- ED50 (Mus musculus [2]): Weak activity

SMILES: O=c1[nH]c2cc(Cl)ccc2c(O)c1-c1ccccc1
- ED50 (Mus musculus [3]): 4.5 mg/kg

SMILES: O=c1[nH]c2cc(Cl)ccc2c(O)c1-c1cccc(Oc2ccccc2)c1
- ED50 (Mus musculus [3]): 0.88 mg/kg

- Kb [5]: 0.35 µM
SMILES: CC1CCc2c(nc(O)c(-c3cccc(Oc4ccccc4)c3)c2O)C1 (stereo not drawn)
- ED50 (Mus musculus [4]): inactive

- Kb [5]: 3.7 µM
SMILES: CC1CCc2c(nc(O)c(-c3ccccc3)c2O)C1 (stereo not drawn)
- ED50 (Mus musculus [4]): inactive
- ED50 (Mus musculus [6]): Active

- IC50 [1]: 0.057 µM
SMILES: CC1CCc2c([nH]c(=O)c(-c3cccc(Oc4ccccc4)c3)c2O)C1 (stereo not drawn)

- IC50 [1]: 3.5 µM
SMILES: CC1CCc2c([nH]c(=O)c(-c3ccccc3)c2O)C1 (stereo not drawn)
